# Experimental data from US8415393B2, “Anti-bacterial drug targeting of genome maintenance interfaces” (Wisconsin Alumni Research Foundation, priority 2007, dated 2013).
# Entries after “also recorded” stand apart in the source; their conditions may differ. Like-named read-outs stand apart in the source and are kept apart here. Where no end group is shown, it is not given here. fluorescein = fluorescein moiety attached to the N-terminus of the peptide (N-terminal fluorescein label)
# T1: fluorescein-labeled SSB C-terminal peptide, fluorescein-WMDFDDDIPF (E. coli)
# T1 construct: also called F-WT; F-SSB-Ct
# T1 peptide: fluorescein-WMDFDDDIPF
# Assays:
# [1] = molecular target: Exonuclease I/SSB-Ct complex (Escherichia coli, UniProt P04995); assay: Fluorescence polarization competition: inhibition of fluorescein-SSB C-terminal peptide binding to Exonuclease I (HTS and Ki determination); conditions: for peptide binding inhibition: ExoI/SSB-Ct peptide
# Chain of Exonuclease I/SSB-Ct complex (P04995 whole entry, one chain of several): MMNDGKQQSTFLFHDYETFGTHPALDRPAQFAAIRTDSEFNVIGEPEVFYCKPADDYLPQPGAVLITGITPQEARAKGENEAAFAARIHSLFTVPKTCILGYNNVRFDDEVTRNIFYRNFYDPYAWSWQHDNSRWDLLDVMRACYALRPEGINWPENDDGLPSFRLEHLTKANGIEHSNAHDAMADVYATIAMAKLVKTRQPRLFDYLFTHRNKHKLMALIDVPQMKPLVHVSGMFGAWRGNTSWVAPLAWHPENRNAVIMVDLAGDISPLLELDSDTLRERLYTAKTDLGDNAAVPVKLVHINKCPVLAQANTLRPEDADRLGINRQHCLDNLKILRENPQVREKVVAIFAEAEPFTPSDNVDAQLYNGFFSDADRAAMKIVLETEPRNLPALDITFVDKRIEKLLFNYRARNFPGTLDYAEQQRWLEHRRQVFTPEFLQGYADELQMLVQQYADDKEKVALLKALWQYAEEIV
# Protocol: Peptide binding assays were performed in solution, using the peptides from above, and Exonuclease I, in the absence or presence of various compounds. Different amounts of Exonuclease I (ExoI) were used in the peptide binding assays. […] Fluorescence polarization (FP) was measured at 25° C. in triplicate; the average FP value was plotted with standard deviation of the mean shown as error.
# Concentrated Exonuclease I was dialyzed overnight into 2 liters dilution buffer (DB) (20 mM Tris pH 8.0 HCl, 100 mM NaCl, 1 mM MgCl2, and 1 mM Beta-Mercaptoethanol). […] After sitting at room temperature for 5 min, a liquid handling system was used to aliquot this solution into 384 well plates providing 30 microliters/well. One microliter of 1 mM compound was then added. The screened compounds were obtained from the ChemBridge DIVERSet library (ChemBridge Corporation, San Diego, Calif.), from the Maybridge HitFinder library (Thermo Fisher Scientific, Waltham, Mass.), from the ChemDiv library (Chemical Diversity Labs, San Diego, Calif.), or from the Known Bioactive Library—KBA01.
# The FP (fluorescence polarization) values for each well were read using a (plate reader) 5 minutes after compound addition.
# Increasing amounts of compound were titrated into peptide protein mixture until FP values were lowered to values given by only fluorescently labeled peptide alone. Ki values were determined using the Ki calculator for fluorescence-based competitive binding assays of Prof. Shaomeng Wang, University of Michigan (Nikolovska-Coleska et al., 2004, Anal. Biochem. 332: 261-273).
# [2] = tested on: E. coli 4213 (imp4213, compromised cell wall); assay: microbe, parasite or virus in culture; format: cell-based; conditions: Escherichia coli
# Protocol: The compromised cell wall allows the chemicals to pass through it more readily.
# (§1) 100 μL of LB containing E. coli 1655, E. coli 4213, or S. aureus at A ˜0.05 OD 600 was aliquoted in 96 well plates. One μL of compound in DMSO was added to final concentrations given. Plates were incubated at 37° C. with shaking at 250 RPM. Rate of growth was calculated by determining the average change in OD/hour that took place between hours 3 and 7 (log growth phase). The graphs shown herein are plots of this bacterial growth rate (change in OD/h) against inhibitor concentration in μM.
# [3] = tested on: HT-29 (human colorectal adenocarcinoma) cells; assay: Mammalian cell toxicity, CellTiter-Glo cell viability assay; format: cell-based
# Protocol: The toxicity of the identified antimicrobial candidate compounds was tested using human colorectal adenocarcinoma cells in vitro. […] The mammalian cells were tested using a CellTiter-Glo cell viability assay (Promega, Madison, Wis.).
# red blood cells = assay: In vitro hemolysis; format: cell-based; conditions: for % hemolysis at given concentration: 1 hour; for Hemolysis: Table 3, minimum concentration necessary to lyse red blood cells
# Protocol: The identified small molecules were incubated with red blood cells to see what percentage of cells would lyse after 1 hour. Estimated hemolysis data are due to problem with reading absorbance, when the compound absorbs at the same wavelength as heme or if the compound precipitates. In such instances it is difficult to quantitate the absorbance readings; however, visual determination of how many cells have lysed can then be performed, which provides an estimate of cell lysis.
# [4] = tested on: Staphylococcus aureus 12598; assay: Bacterial growth assay in LB liquid media, S. aureus; format: cell-based
# Protocol: as §1
# [5] = molecular target: T1, fluorescein-labeled SSB C-terminal …; assay: equilibrium fluorescence anisotropy
# [6] = read-out: IC50 μM inhibitor, inhibition of E. coli growth
# [7] = read-out: IC(50) E. coli imp4213
# [8] = HT-29 cells, CellTiter-Glo, read-out: IC50
# [9] = Staphylococcus aureus, 12598, Table 3, reduce growth 50% in liquid media, unit not given (Table 5 gives μM), read-out: IC(50) S. aureus
# [10] = Staphylococcus aureus, 12598, Table 5, read-out: IC50 μM inhibitor, inhibition of S. aureus growth
molecule,measurement,setting,value
"CC(C)c1cc(O)n(-c2nc3ccccc3s2)n1 [Compound 29, 1-(1,3-benzothiazol-2-yl)-3-isopropyl-1H-pyrazol-5-ol]",peptide binding inhibition,[1],did not inhibit binding
same,IC50,[2]; [6],88 µM
same,IC50,[2]; [7],88 µM
same,IC50,[3]; HT-29,> 100 µM
same,% hemolysis at given concentration,red blood cells; >800 μM,0% >800
same,Hemolysis,red blood cells,>800 µM
"Cc1nn(-c2nc3ccccc3s2)c(O)c1C [Compound 28, 1-(1,3-benzothiazol-2-yl)-3,4-dimethyl-1H-pyrazol-5-ol]",peptide binding inhibition,[1],did not inhibit binding
same,IC50,[2]; [6],38 µM
same,IC50,[2]; [7],38 µM
same,IC50,[3]; HT-29,> 100 µM
same,% hemolysis at given concentration,red blood cells; >800 μM,0% >800
same,Hemolysis,red blood cells,>800 µM
"CC1=NN(c2nc3ccc(Cl)cc3s2)C(=O)C1 [Compound 46, 1-(6-chloro-1,3-benzothiazol-2-yl)-3-methyl-4,5-dihydro-1H-pyrazol-5-one]",Ki,[1],1.5 µM
same,Ki,"[1]; Ki estimates, Table 2",1.5 µM
same,IC50,[3]; [8],55 µM
same,% hemolysis at given concentration,red blood cells; >800 μM,0% >800
same,Hemolysis,red blood cells,>800 µM
"CC1=NN(c2nc3ccccc3s2)C(=O)C1 [Compound 31, 2-(1,3-benzothiazol-2-yl)-5-methyl-2,4-dihydro-3H-pyrazol-3-one]",peptide binding inhibition,[1],much weaker binding; also recorded: did not inhibit binding
same,IC50,[2]; [6],50 to 100 µM
same,IC50,[2]; [7],50 to 100 µM
same,% hemolysis at given concentration,red blood cells; >800 μM,0% >800
same,Hemolysis,red blood cells,>800 µM
"Cc1noc(C)c1C(=O)Nc1nc2ccc(Cl)cc2s1 [Compound 42, N-(6-chloro-1,3-benzothiazol-2-yl)-3,5-dimethyl-4-isoxazolecarboxamide]",IC50,[4]; [9],9 µM
same,IC50,[4]; [10],9 µM
same,IC50,[3]; [8],51 µM
same,% hemolysis at given concentration,red blood cells; >800 μM,0% >800
same,Hemolysis,red blood cells,>800 µM
"O=[N+]([O-])c1ccc(Oc2cc(C(F)(F)F)ccc2Cl)cc1O [Compound 37, 5-[2-chloro-5-(trifluoromethyl)phenoxy]-2-nitrophenol]",Ki,[1],0.7 µM
same,Ki,"[1]; Ki estimates, Table 2",0.7 µM
same,IC50,[2]; [6],33 µM
same,IC50,[2]; [7],33 µM
same,IC50,"[4]; Staphylococcus aureus, 12598, read-out: IC50 μM inhibitor, inhibition of S. aureus growth",2.5 µM
same,IC50,"[4]; Staphylococcus aureus, 12598, read-out: IC(50) S. aureus",2.5 µM
same,IC50,[3]; HT-29,> 100 µM
same,% hemolysis at given concentration,red blood cells; 800 μM,estimated 0% 800
same,Hemolysis,red blood cells,>800 µM
"O=C(O)c1ccccc1Nc1cccc(C(F)(F)F)c1 [Compound 32, 2-[3-(trifluoromethyl)anilino]benzoic acid]",Ki,[1],1.5 µM
same,Ki,"[1]; Ki estimates, Table 2",1.5 µM
same,IC50,[2]; [6],33 µM
same,IC50,[2]; [7],33 µM
same,IC50,[4]; [9],30 µM
same,IC50,[4]; [10],30 µM
same,IC50,[3]; [8],> 100 µM
same,% hemolysis at given concentration,red blood cells; >800 μM,0% >800
same,Hemolysis,red blood cells,>800 µM
"ExoI Arg148 Ala variant (enzyme, peptide-A-site variant; also called R148A; Arg148 variant) MMNDGKQQSTFLFHDYETFGTHPALDRPAQFAAIRTDSEFNVIGEPEVFYCKPADDYLPQPGAVLITGITPQEARAKGENEAAFAARIHSLFTVPKTCILGYNNVRFDDEVTRNIFYRNFYDPYAWSWQHDNSRWDLLDVMRACYALAPEGINWPENDDGLPSFRLEHLTKANGIEHSNAHDAMADVYATIAMAKLVKTRQPRLFDYLFTHRNKHKLMALIDVPQMKPLVHVSGMFGAWRGNTSWVAPLAWHPENRNAVIMVDLAGDISPLLELDSDTLRERLYTAKTDLGDNAAVPVKLVHINKCPVLAQANTLRPEDADRLGINRQHCLDNLKILRENPQVREKVVAIFAEAEPFTPSDNVDAQLYNGFFSDADRAAMKIVLETEPRNLPALDITFVDKRIEKLLFNYRARNFPGTLDYAEQQRWLEHRRQVFTPEFLQGYADELQMLVQQYADDKEKVALLKALWQYAEEIV",fold weaker binding than wild-type ExoI,[5],10 to 100 fold
"ExoI Glu150 Ala variant (enzyme, also called E150A; Glu150 variant) MMNDGKQQSTFLFHDYETFGTHPALDRPAQFAAIRTDSEFNVIGEPEVFYCKPADDYLPQPGAVLITGITPQEARAKGENEAAFAARIHSLFTVPKTCILGYNNVRFDDEVTRNIFYRNFYDPYAWSWQHDNSRWDLLDVMRACYALRPAGINWPENDDGLPSFRLEHLTKANGIEHSNAHDAMADVYATIAMAKLVKTRQPRLFDYLFTHRNKHKLMALIDVPQMKPLVHVSGMFGAWRGNTSWVAPLAWHPENRNAVIMVDLAGDISPLLELDSDTLRERLYTAKTDLGDNAAVPVKLVHINKCPVLAQANTLRPEDADRLGINRQHCLDNLKILRENPQVREKVVAIFAEAEPFTPSDNVDAQLYNGFFSDADRAAMKIVLETEPRNLPALDITFVDKRIEKLLFNYRARNFPGTLDYAEQQRWLEHRRQVFTPEFLQGYADELQMLVQQYADDKEKVALLKALWQYAEEIV",fold enhanced binding relative to wild-type ExoI,[5],~2 fold
"ExoI Arg338 Ala variant (enzyme, basic ridge variant; also called R338A; Arg338 variant) MMNDGKQQSTFLFHDYETFGTHPALDRPAQFAAIRTDSEFNVIGEPEVFYCKPADDYLPQPGAVLITGITPQEARAKGENEAAFAARIHSLFTVPKTCILGYNNVRFDDEVTRNIFYRNFYDPYAWSWQHDNSRWDLLDVMRACYALRPEGINWPENDDGLPSFRLEHLTKANGIEHSNAHDAMADVYATIAMAKLVKTRQPRLFDYLFTHRNKHKLMALIDVPQMKPLVHVSGMFGAWRGNTSWVAPLAWHPENRNAVIMVDLAGDISPLLELDSDTLRERLYTAKTDLGDNAAVPVKLVHINKCPVLAQANTLRPEDADRLGINRQHCLDNLKILAENPQVREKVVAIFAEAEPFTPSDNVDAQLYNGFFSDADRAAMKIVLETEPRNLPALDITFVDKRIEKLLFNYRARNFPGTLDYAEQQRWLEHRRQVFTPEFLQGYADELQMLVQQYADDKEKVALLKALWQYAEEIV",fold binding defect,[5],3 fold
"ExoI Asp319 Ala variant (enzyme, also called D319A; Asp319 variant) MMNDGKQQSTFLFHDYETFGTHPALDRPAQFAAIRTDSEFNVIGEPEVFYCKPADDYLPQPGAVLITGITPQEARAKGENEAAFAARIHSLFTVPKTCILGYNNVRFDDEVTRNIFYRNFYDPYAWSWQHDNSRWDLLDVMRACYALRPEGINWPENDDGLPSFRLEHLTKANGIEHSNAHDAMADVYATIAMAKLVKTRQPRLFDYLFTHRNKHKLMALIDVPQMKPLVHVSGMFGAWRGNTSWVAPLAWHPENRNAVIMVDLAGDISPLLELDSDTLRERLYTAKTDLGDNAAVPVKLVHINKCPVLAQANTLRPEAADRLGINRQHCLDNLKILRENPQVREKVVAIFAEAEPFTPSDNVDAQLYNGFFSDADRAAMKIVLETEPRNLPALDITFVDKRIEKLLFNYRARNFPGTLDYAEQQRWLEHRRQVFTPEFLQGYADELQMLVQQYADDKEKVALLKALWQYAEEIV",fold binding defect,[5],2 fold
"ExoI Arg316 Ala variant (enzyme, peptide-A-site variant; also called R316A; Arg316 variant) MMNDGKQQSTFLFHDYETFGTHPALDRPAQFAAIRTDSEFNVIGEPEVFYCKPADDYLPQPGAVLITGITPQEARAKGENEAAFAARIHSLFTVPKTCILGYNNVRFDDEVTRNIFYRNFYDPYAWSWQHDNSRWDLLDVMRACYALRPEGINWPENDDGLPSFRLEHLTKANGIEHSNAHDAMADVYATIAMAKLVKTRQPRLFDYLFTHRNKHKLMALIDVPQMKPLVHVSGMFGAWRGNTSWVAPLAWHPENRNAVIMVDLAGDISPLLELDSDTLRERLYTAKTDLGDNAAVPVKLVHINKCPVLAQANTLAPEDADRLGINRQHCLDNLKILRENPQVREKVVAIFAEAEPFTPSDNVDAQLYNGFFSDADRAAMKIVLETEPRNLPALDITFVDKRIEKLLFNYRARNFPGTLDYAEQQRWLEHRRQVFTPEFLQGYADELQMLVQQYADDKEKVALLKALWQYAEEIV",fold weaker binding than wild-type ExoI,[5],10 to 100 fold
"ExoI Gln311 Ala variant (enzyme, peptide-A-site variant; also called Q311A; Gln311 variant) MMNDGKQQSTFLFHDYETFGTHPALDRPAQFAAIRTDSEFNVIGEPEVFYCKPADDYLPQPGAVLITGITPQEARAKGENEAAFAARIHSLFTVPKTCILGYNNVRFDDEVTRNIFYRNFYDPYAWSWQHDNSRWDLLDVMRACYALRPEGINWPENDDGLPSFRLEHLTKANGIEHSNAHDAMADVYATIAMAKLVKTRQPRLFDYLFTHRNKHKLMALIDVPQMKPLVHVSGMFGAWRGNTSWVAPLAWHPENRNAVIMVDLAGDISPLLELDSDTLRERLYTAKTDLGDNAAVPVKLVHINKCPVLAAANTLRPEDADRLGINRQHCLDNLKILRENPQVREKVVAIFAEAEPFTPSDNVDAQLYNGFFSDADRAAMKIVLETEPRNLPALDITFVDKRIEKLLFNYRARNFPGTLDYAEQQRWLEHRRQVFTPEFLQGYADELQMLVQQYADDKEKVALLKALWQYAEEIV",fold binding defect relative to wild-type ExoI,[5],2 fold
